Experimental data reported in article PMC7238241, “Lack of Correlation between In Vitro and In Vivo Studies on the Inhibitory Effects of (‒)-Sophoranone on CYP2C9 Is Attributable to Low Oral Absorption and Extensive Plasma Protein Binding of (‒)-Sophoranone” (Pharmaceutics, 2020).
Where two headings read alike, the source gives them in different places.

Columns and labels:
CYP1A2 = settings: not in vivo because of high plasma protein binding; cited from earlier work
[1] = cited from earlier work
CYP2A6 = biological target: T1, CYP2A6 (Homo sapiens, UniProt P11509); experiment: Reversible CYP2A6 inhibition, cocktail assay (coumarin 7-hydroxylase) in human liver microsomes; type: biochemical
T1 construct: tissue Corning Life Sciences; host or cells: pooled human liver microsomes, 150 donors
T1 sequence (P11509 1-494): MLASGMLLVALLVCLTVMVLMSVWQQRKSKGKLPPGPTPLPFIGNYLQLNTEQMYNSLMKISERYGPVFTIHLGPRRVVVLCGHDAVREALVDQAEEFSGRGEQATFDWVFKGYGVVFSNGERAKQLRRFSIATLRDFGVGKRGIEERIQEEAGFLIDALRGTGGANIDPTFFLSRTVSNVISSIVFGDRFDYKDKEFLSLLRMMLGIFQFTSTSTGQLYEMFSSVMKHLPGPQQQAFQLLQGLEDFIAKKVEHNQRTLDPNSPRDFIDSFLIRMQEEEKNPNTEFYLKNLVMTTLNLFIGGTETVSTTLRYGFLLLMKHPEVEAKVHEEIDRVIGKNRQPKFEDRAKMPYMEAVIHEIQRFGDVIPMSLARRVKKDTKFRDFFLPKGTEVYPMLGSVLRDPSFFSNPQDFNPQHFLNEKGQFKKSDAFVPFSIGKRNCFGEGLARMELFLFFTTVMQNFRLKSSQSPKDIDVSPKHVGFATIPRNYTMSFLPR
Method: (§1) The inhibitory effects of SPN on CYP1A2, CYP2A6, CYP2B6, CYP2C8, CYP2C9, CYP2C19, CYP2D6, CYP2E1, and CYP3A4 were evaluated in pooled human liver microsomes through the use of specific CYP probe substrates (cocktail assay), as previously described with a slight modification. Concentrations of each CYP probe in Table 1 were used close to their reported Km values.
(§2) Briefly, a 90-µL incubation mixture, including pooled human liver microsomes (final concentration 0.1 mg/mL), 50 mM phosphate buffer (pH 7.4), each CYP-probe substrate cocktail set, and SPN (0–50 μM), was pre-incubated for 5 min at 37 °C. SPN was dissolved in methanol and spiked into the incubation mixture to a final concentration of 0.5% methanol. All P450-selective substrates (except coumarin due to solubility) were dissolved in methanol and serially diluted with methanol to the required concentrations, and the organic solvent was subsequently evaporated under a gentle stream of N2 gas to minimize the effects of organic solvents on CYP activities. On the other hand, coumarin dissolved in 50 mM phosphate buffer (pH 7.4) was directly added into the mixed tube. The reaction was initiated by adding 10-µL aliquot of NADPH-generating system (1.3 mM NADP^+, 3.3 mM glucose 6-phosphate, 3.3 mM MgCl2, and 0.4 unit/mL glucose-6-phosphate dehydrogenase) before 15 min incubation at 37 °C in a shaking water bath. […]
(§3) The IC50 values were calculated via nonlinear least-squares regression analysis from logarithmic plots of inhibitor concentration versus percentage of activity remaining after inhibition, using SigmaPlot (ver. 14.0; Systat Software Inc, Chicago, IL, USA). The Ki values were determined from the equations for a single substrate single inhibitor model and the software available in the SigmaPlot Enzyme Kinetics module. Competitive, non-competitive, uncompetitive, or mixed inhibition models were evaluated and ranked according to the best fit based on Akaike Information Criterion (AIC) values. […]

[2] = Effects of SPN on the pharmacokinetics of diclofenac in rats; settings: male, Sprague-Dawley, rat, plasma, po, 2 mg/kg, oral diclofenac 2 mg/kg, n = 6; for AUC(0-t): AUCt; for AUC(0-t) / AUC(0-inf) / Cmax / Tmax: rats; for Tmax: median (ranges); for half-life: t1/2, rats
Method: (§4) The carotid arteries of each rat were cannulated with a polyethylene tube (Clay Adams, Franklin Lakes, NJ, USA) for blood sampling. Each rat was individually housed in a rat metabolic cage and allowed to recover from anesthesia for 4–5 h prior to the start of the experiment. […] SPN was suspended in dimethylsulfoxide:PEG400:distilled water (5:60:35, v/v/v) and administered by oral gavage at a dose of 75 mg/kg in a volume of 5 mL/kg. […] The blood samples were immediately centrifuged at 13,000× g for 5 min at 4 °C. The plasma samples were divided into two Eppendorf tubes by 50 μL and stored at −80 °C until LC-MS/MS analysis.
(§5) Briefly, 50 μL aliquots of plasma were extracted with 300 μL aliquots of acetonitrile containing chlorpropamide (internal standard), followed by LC-MS/MS (Shimadzu Corporation). Chromatographic separation was performed on a Phenomenex Luna C18 column (100 × 2.00 mm; 3.0 μm). The isocratic mobile phase consisted of 0.1% formic acid in distilled water (A) and 0.1% formic acid in acetonitrile (B) (45:55, v/v), with a flow rate of 0.3 mL/min. […] The data acquisition was computed using LabSolutions LCMS Ver.5.6 (Shimadzu Corporation).
(§6) Pharmacokinetic parameters were calculated by a non-compartmental analysis using WinNonlin Professional software (version 5.2, Pharsight Corp., Mountain View, CA, USA) that used the total area under the plasma concentration–time curve from time zero to infinity (AUC∞) or the last measured time (AUCt). The logarithmic trapezoidal rule was used during the declining plasma level phase and the linear trapezoidal rule was used for the rising plasma-level phase. The peak plasma concentration (Cmax) and time to reach Cmax (Tmax) were read directly from the experimental data. Statistically significant differences were recognized at p < 0.05.

CYP2C8 = settings: in humans; cited from earlier work
[3] = Bi-directional Caco-2 cell permeability; type: in vitro ADME; settings: human, Caco-2; 10 μM, 2 h, n = 3
Method: Caco-2 cell permeability was assessed to predict the oral absorption of SPN. Cell culture and transport studies were performed as previously described. Briefly, for the bi-directional transport studies, the cells were seeded at a density of 1 × 10^5 cells/well, and the cell medium was replaced until they formed confluent monolayers. On the 25th day, the cell monolayers were washed with pre-warmed HBSS buffer. […] Before the experiment, the integrity of the cell monolayers was evaluated by measuring the transepithelial electrical resistance using a Millicell ohmmeter. After 2 h incubation at 37 °C, samples were withdrawn from both sides, respectively. All samples were stored at −80 °C until LC-MS/MS analysis, and all experiments were performed in triplicate.
The apparent permeability coefficient (Papp) was calculated using the following equation. Papp = (Vr/C0) × (1/A) × ([Drug]/t) where, Vr is the volume of medium in the receiver chamber, C0 is the donor compartment concentration at time zero, A is the area of the cell monolayer, t is the treatment time of the drug, and [Drug] is the drug concentration in the receiver chamber.

[4] = male, Sprague-Dawley, rat, in vivo, po, 2 mg/kg
Method: as §4, §5, §6

in vivo = settings: male, Sprague-Dawley, rat, po, 2 mg/kg
Method: as §4, §5, §6

CYP2E1 = biological target: T2, CYP2E1 (Homo sapiens, UniProt P05181); experiment: Reversible CYP2E1 inhibition, cocktail assay (chlorzoxazone 6-hydroxylase) in human liver microsomes; type: biochemical
T2 construct: tissue Corning Life Sciences; host or cells: pooled human liver microsomes, 150 donors
T2 sequence (P05181 whole entry): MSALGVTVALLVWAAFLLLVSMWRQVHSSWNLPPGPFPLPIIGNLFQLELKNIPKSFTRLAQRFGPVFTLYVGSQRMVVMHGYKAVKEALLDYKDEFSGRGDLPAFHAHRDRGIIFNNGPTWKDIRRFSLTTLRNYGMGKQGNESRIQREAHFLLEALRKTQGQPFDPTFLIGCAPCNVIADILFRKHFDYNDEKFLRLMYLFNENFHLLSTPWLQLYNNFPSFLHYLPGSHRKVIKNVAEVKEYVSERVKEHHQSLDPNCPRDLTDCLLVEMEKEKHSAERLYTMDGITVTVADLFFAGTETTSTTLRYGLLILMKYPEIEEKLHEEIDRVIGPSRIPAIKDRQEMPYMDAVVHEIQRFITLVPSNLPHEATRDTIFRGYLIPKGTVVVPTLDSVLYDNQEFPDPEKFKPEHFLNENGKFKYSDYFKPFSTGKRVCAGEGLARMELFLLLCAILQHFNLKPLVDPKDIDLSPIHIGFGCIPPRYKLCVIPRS
Method: as §1, §2, §3

Cc1c(Cl)cccc1Nc1ccccc1C(=O)O [Tolfenamic acid]
CYP1A2 inhibition in vitro (CYP1A2): strongly inhibited CYP1A2 in vitro | plasma protein binding [1]: 99.7%

NCCc1c[nH]c2ccccc12 [Tryptamine, reference compound]
IC50 (CYP2A6): 2980 ± 635 nM

O=C(O)Cc1ccccc1Nc1c(Cl)cc(O)cc1Cl [4′-hydroxydiclofenac]
AUC(0-t) ([2]; with oral SPN 75 mg/kg): 742 ng·h/mL | AUC(0-t) ([2]; without SPN): 747 ng·h/mL | AUC(0-inf) ([2]; with oral SPN 75 mg/kg): 1130 ng·h/mL | AUC(0-inf) ([2]; without SPN): 1140 ng·h/mL | Cmax ([2]; with oral SPN 75 mg/kg): 173 ± 40.8 ng/mL | Cmax ([2]; without SPN): 180 ± 55.2 ng/mL | Tmax ([2]; with oral SPN 75 mg/kg): 15 min | Tmax ([2]; without SPN): 10 min | half-life ([2]; with oral SPN 75 mg/kg): 296 ± 59.7 min | half-life ([2]; without SPN): 278 ± 70 min

CC(C)(O)c1ccccc1CC[C@@H](SCC1(CC(=O)O)CC1)c1cccc(/C=C/c2ccc3ccc(Cl)cc3n2)c1 [Montelukast]
plasma protein binding ([1]; reference not given): > 99.7% | effect on the pharmacokinetics of the CYP2C8 substrates pioglitazone and rosiglitazone (CYP2C8): no effect

CC(C)NCC(O)COc1cccc2ccccc12 (centres unmarked) [propranolol, reference compound]
Papp B→A at 2 h, 10 µM [3]: 21.5 ± 2.19 ×10⁻⁶ cm/s

O=C(O)Cc1ccccc1Nc1c(Cl)cccc1Cl [Diclofenac]
AUCt [4]: 69.4 ± 2.98 µg·min/mL | AUC(0-t) (in vivo; AUCt): 1060 ng·h/mL | AUC(0-inf) (in vivo; AUC∞): 1200 ng·h/mL | Cmax (in vivo; Cmax): 882 ± 245 ng/mL | Tmax (in vivo; Tmax, median (ranges)): 5 min | half-life (in vivo; t1/2): 153 ± 60.1 min

CCN(CC)C(=S)S [Diethyldithiocarbamate, reference compound]
IC50 (CYP2E1): 12 ± 3.67 µM
